Eleven molecules from ChEMBL document CHEMBL1681667, “Structure-activity relationship studies of sphingosine-1-phosphate receptor agonists with N-cinnamyl-β-alanine moiety” (Bioorg Med Chem Lett, 2011) can be followed below.

For data set [1], the target named is Sphingosine 1-phosphate receptor 2 (Homo sapiens, UniProt O95136). Put plainly: Agonist activity at human S1P2 receptor expressed in CHO cells assessed as intracellular calcium levels. The data set is classed as functional, cell-based.
The target in data set [2] is Sphingosine 1-phosphate receptor 1 (Homo sapiens, UniProt P21453). Put plainly: Agonist activity at human S1P1 receptor expressed in CHO cells assessed as intracellular calcium levels. The data set is classed as functional, cell-based.
Chain of Sphingosine 1-phosphate receptor 1 (P21453 whole entry): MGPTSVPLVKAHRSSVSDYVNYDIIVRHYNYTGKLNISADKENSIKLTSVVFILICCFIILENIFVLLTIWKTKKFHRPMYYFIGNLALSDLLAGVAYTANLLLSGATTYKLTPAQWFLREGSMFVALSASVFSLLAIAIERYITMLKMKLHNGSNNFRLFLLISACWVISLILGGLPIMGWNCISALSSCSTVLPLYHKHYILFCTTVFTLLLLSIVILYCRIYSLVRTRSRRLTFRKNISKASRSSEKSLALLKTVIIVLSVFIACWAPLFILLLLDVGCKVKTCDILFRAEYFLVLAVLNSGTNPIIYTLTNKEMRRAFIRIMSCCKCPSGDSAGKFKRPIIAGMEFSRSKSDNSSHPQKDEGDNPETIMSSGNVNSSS
In data set [3] the target is Sphingosine 1-phosphate receptor 3 (Homo sapiens, UniProt Q99500). Put plainly: Agonist activity at human S1P3 receptor expressed in CHO cells assessed as intracellular calcium levels. The format is functional, cell-based.
Chain of Sphingosine 1-phosphate receptor 3 (Q99500 whole entry): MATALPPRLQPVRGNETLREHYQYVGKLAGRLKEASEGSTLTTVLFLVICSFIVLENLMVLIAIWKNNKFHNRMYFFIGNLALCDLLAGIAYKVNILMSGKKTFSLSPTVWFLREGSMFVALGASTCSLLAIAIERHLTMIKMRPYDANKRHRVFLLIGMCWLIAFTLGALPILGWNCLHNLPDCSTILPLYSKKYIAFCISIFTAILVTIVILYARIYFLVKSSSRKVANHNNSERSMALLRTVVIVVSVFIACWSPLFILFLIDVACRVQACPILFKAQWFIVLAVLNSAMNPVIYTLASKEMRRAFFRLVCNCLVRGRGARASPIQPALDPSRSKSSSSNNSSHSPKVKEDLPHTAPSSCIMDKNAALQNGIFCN
For data set [4], the target named is Sphingosine 1-phosphate receptor 5 (Homo sapiens, UniProt Q9H228). As to the kind of experiment: Agonist activity at human S1P5 receptor expressed in CHO cells assessed as intracellular calcium levels. The format is functional, cell-based.
Chain of Sphingosine 1-phosphate receptor 5 (Q9H228 whole entry): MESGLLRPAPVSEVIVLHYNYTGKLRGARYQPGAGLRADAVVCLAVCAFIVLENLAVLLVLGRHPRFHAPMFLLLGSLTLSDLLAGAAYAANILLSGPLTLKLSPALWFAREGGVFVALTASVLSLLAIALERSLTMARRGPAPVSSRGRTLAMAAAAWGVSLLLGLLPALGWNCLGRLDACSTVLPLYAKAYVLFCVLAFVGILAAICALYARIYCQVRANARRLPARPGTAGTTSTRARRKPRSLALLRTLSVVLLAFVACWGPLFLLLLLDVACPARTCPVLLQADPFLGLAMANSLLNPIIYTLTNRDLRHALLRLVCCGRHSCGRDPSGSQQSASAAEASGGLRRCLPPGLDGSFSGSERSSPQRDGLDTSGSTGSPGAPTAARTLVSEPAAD
In another data set the test system is Mus musculus. Put plainly: Immunomodulatory activity in po dosed mouse assessed as peripheral blood lymphocyte lowering activity after 4 hrs. The format is functional.
The nature of data set [5]: Half life in rat at 30 mg/kg, po. The data set is classed as ADME, organism-based. Details: dose 30 mg/kg, route oral. As to conditions: in vivo.
The nature of data set [6]: Cmax in rat at 30 mg/kg, po. The data set is classed as ADME, organism-based. Details: dose 30 mg/kg, route oral. The settings on record: in vivo.
Data set [7] in a line: AUC (infinity) in rat at 30 mg/kg, po. The format is ADME, organism-based. Details: time infinity, dose 30 mg/kg, route oral. The settings on record: plasma.

Bounds are passed on as bounds.

Chain of Sphingosine 1-phosphate receptor 2 (O95136 whole entry): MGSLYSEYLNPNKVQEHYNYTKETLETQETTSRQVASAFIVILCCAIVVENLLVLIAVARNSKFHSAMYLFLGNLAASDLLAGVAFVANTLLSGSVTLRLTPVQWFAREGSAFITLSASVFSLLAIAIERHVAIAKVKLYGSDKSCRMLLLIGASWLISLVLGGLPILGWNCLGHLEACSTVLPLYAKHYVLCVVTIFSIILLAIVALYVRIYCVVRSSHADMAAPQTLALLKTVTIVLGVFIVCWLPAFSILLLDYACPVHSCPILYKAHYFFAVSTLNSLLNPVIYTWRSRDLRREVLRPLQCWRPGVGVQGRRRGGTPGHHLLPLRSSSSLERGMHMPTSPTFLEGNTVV

On to `O=C(O)CCNCCCc1ccc(OCCCCCc2ccccc2)cc1`, for which the EC50 in data set [1] was over 10 µM; in data set [2], 160 nM; in data set [3], 4.2 µM; in data set [4], 170 nM. Also, in the data set with Mus musculus, the ED50 turned out to be 26 mg/kg.

In data set [5], `O=C(O)CCNCCCc1ccc(OCCCc2ccccc2)cc1` gave a half-life of 228 min. The Cmax in data set [6] amounted to 28000 ng/mL. In addition, the concentration for a half-maximal effect (EC50) was 2600 nM in data set [2] and 9 µM in data set [3]. The molecule also displayed an AUC(0-inf) in data set [7] of 174 µg·h/mL.

Take `O=C(O)CCNCCCc1ccc(OCCCCc2ccccc2)cc1`: the EC50 is 1500 nM in data set [2] and over 10 µM in data set [3].

In the case of `O=C(O)CCNCCCc1ccc(OCCCCCCc2ccccc2)cc1`, the EC50 in data set [2] is 2700 nM; in data set [3] it was over 10 µM.

As for `O=C(O)CCNC/C=C/c1ccc(OCCCc2ccccc2)cc1`, the EC50 in data set [2] worked out at 70 nM; in data set [3], 3.3 µM. Besides, the ED50 with Mus musculus came to 4.6 mg/kg.

Consider `C/C(=C\c1ccc(OCCCc2ccccc2)cc1)CNCCC(=O)O`, for which the EC50 in data set [2] was 33 nM; in data set [3] it was 1.9 µM.

In data set [5], `C/C(=C\CNCCC(=O)O)c1ccc(OCCCc2ccccc2)cc1` gave a half-life of 444 min. Besides, the values for the EC50 in data set [2] and in data set [3] were 21 nM and over 10 µM, respectively. Further, in the data set with Mus musculus, the ED50 was determined as 0.69 mg/kg.

On to `C/C(=C/CNCCC(=O)O)c1ccc(OCCCc2ccccc2)cc1`, for which the EC50 in data set [2] was 930 nM; in data set [3] it was over 10 µM.

As for `O=C(O)CCN1CC=C(c2ccc(OCCCc3ccccc3)cc2)CC1`, the EC50 is 45 nM in data set [2] and 1.2 µM in data set [3]. The ED50 in the data set with Mus musculus is 1.4 mg/kg.

Take `O=C(O)CCN1CCC(c2ccc(OCCCc3ccccc3)cc2)CC1`: the EC50 in data set [2] is 1600 nM; in data set [3], over 10 µM.

On to `O=C(O)CCN1CCC/C(=C\c2ccc(OCCCc3ccccc3)cc2)C1`, for which the EC50 in data set [2] was 1500 nM; in data set [3] it was over 10 µM.
